≈ marks a conversion by molar mass, not a printed value.
Experiments:
[1] = Chemical stability of compositions on storage (total impurities); format: physicochemical
Source text: [No. 1 in FIG. 3b is isopropyl ((R)—((((R)-1-(6-amino-9H-purin-9-yl)propan-2-yl)oxy)methyl) (phenoxy)phosphoryl)-L-alaninate]

[2] = physchem; settings: water
[3] = cited from earlier work
[4] = Syringeability/injectability with various wetting agents; format: physicochemical; settings: 40% TAF/60% PLGA 5050, 125 mg/mL suspension, wetting agent in minimal amounts
Experimental: Suspending vehicles with various wetting agents were prepared. […] A formulation 40% TAF (free base, crystalline, and micronized) and 60% PLGA 5050 was used to obtain a 125 mg/mL suspension. These suspensions were evaluated for syringeability/injectability. […] Additionally, Tween 80 could accommodate sterilization via filtration.

## CC(C)OC(=O)[C@H](C)N[P@](=O)(CO[C@H](C)Cn1cnc2c(N)ncnc21)Oc1ccccc1 [Free base, (S)-isopropyl-2-(((S)—((((R)-1-(6-amino-9H-purin-9-yl)propan-2-yl)oxy)methyl)(phenoxy)phosphoryl)amino)propanoate]
[1]; 40° C./75% RH closed for 2 weeks
  total impurities: 2.1%
[1]; initial
  total impurities observed initially: 2.1%
[2]
  solubility: ~3500 µg/mL (≈ 7.35 mM)

## Poly(D,L-lactide) [PDLLA]
[3]
  degradation time in vivo: 12-18 months

## polysorbate 80 [Tween 80]
[4]
  syringeability/injectability through a 20 G needle: improved syringeability/injectability

Source: patent publication US20220296619A1, “PHARMACEUTICAL FORMULATIONS OF TENOFOVIR ALAFENAMIDE” (priority 2019, published 2022)
